In US12435092B2, “Substituted imidazo[1,2-A]quinazolines as inhibitors of PARG” (858 Therapeutics, Inc., priority 2022, dated 2025):

The compounds below were run against T1, cellular PARG (Homo sapiens, UniProt Q86W56) (assay: Nuclear PAR accumulation assay (immunofluorescence high-content imaging)). Conditions: HeLa cells, 1 hour compound treatment then MMS 50 μg/mL for an additional hour.
T1 construct: endogenous in cells; host or cells: HeLa
T1 sequence (Q86W56 whole entry): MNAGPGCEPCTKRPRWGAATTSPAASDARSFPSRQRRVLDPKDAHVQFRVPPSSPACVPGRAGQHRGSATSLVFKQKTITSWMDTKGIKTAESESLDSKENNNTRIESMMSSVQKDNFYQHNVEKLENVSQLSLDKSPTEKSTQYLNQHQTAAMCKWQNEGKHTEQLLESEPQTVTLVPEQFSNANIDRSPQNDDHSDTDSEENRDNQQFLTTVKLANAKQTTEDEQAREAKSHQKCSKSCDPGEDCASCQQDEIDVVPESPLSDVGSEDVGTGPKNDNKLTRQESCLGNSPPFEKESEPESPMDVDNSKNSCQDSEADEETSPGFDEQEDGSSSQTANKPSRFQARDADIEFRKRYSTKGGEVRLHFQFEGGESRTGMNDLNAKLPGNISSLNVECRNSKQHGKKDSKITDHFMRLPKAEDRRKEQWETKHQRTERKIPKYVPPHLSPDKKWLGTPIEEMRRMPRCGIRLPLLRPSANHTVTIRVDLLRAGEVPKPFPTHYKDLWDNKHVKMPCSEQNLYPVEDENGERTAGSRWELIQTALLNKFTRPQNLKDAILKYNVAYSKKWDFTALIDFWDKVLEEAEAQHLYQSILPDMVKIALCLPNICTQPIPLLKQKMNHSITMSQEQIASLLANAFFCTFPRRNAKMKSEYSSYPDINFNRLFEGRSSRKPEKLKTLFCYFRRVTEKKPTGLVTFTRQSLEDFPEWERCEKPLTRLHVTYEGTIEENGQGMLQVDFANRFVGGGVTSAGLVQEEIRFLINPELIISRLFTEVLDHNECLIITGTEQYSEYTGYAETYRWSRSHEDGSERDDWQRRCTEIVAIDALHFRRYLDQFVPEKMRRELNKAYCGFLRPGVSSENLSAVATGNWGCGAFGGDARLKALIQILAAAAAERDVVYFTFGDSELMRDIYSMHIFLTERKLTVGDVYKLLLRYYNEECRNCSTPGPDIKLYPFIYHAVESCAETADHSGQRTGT
Type: cell-based
Method in brief: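 HeLa cells pretreated 1 h at 37 °C with compound, then 1 h with 50 μg/mL MMS (final), methanol-fixed and immunostained for PAR with DAPI nuclear counterstain. Nuclear PAR intensity and percent PAR-positive cells quantified by high-content imaging (≥1,000 cells/well). IC50 by four-parameter logistic fit, normalized to 0.1% DMSO and reference-compound controls.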
`Cc1nc(C)c(CN2C(=O)c3cc(S(=O)(=O)NC4(C)CC4)ccc3N3C2=NC[C@H]3C)s1` [Example 73, (R)-4-((2,4-dimethylthiazol-5-yl)methyl)-1-methyl-N-(1-methylcyclopropyl)-5-oxo-1,2,4,5-tetrahydroimidazo[1,2-a]quinazoline-7-sulfonamide] was tested, and the IC50 was at most 100 nM.
With `C[C@@H]1CN=C2N(Cc3cnn(C)c3)C(=O)c3cc(S(=O)(=O)NC4(C)CC4)c(F)cc3N21` [Example 74, (R)-8-fluoro-1-methyl-4-((1-methyl-1H-pyrazol-4-yl)methyl)-N-(1-methylcyclopropyl)-5-oxo-1,2,4,5-tetrahydroimidazo[1,2-a]quinazoline-7-sulfonamide] the IC50 was at most 100 nM.
Work on `C[C@H]1CCN=C2N(Cc3cnn(C)c3)C(=O)c3cc(S(=O)(=O)NC4(C)CC4)ccc3N21` [Example 75, (S)-1-methyl-5-((1-methyl-1H-pyrazol-4-yl)methyl)-N-(1-methylcyclopropyl)-6-oxo-2,3,5,6-tetrahydro-1H-pyrimido[1,2-a]quinazoline-8-sulfonamide] yielded an IC50 of at most 100 nM.
With `C[C@@H]1CCN=C2N(Cc3cnn(C)c3)C(=O)c3cc(S(=O)(=O)NC4(C)CC4)ccc3N21` [Example 76, (R)-1-methyl-5-((1-methyl-1H-pyrazol-4-yl)methyl)-N-(1-methylcyclopropyl)-6-oxo-2,3,5,6-tetrahydro-1H-pyrimido[1,2-a]quinazoline-8-sulfonamide] the IC50 was at most 100 nM.
With `COC[C@@H]1CN=C2N(Cc3cnn(C)c3)C(=O)c3cc(S(=O)(=O)NC4(C)CC4)ccc3N21` [Example 77, (S)-1-(methoxymethyl)-4-((1-methyl-1H-pyrazol-4-yl)methyl)-N-(1-methylcyclopropyl)-5-oxo-1,2,4,5-tetrahydroimidazo[1,2-a]quinazoline-7-sulfonamide] the IC50 was at most 100 nM.
`COC[C@H]1CN=C2N(Cc3cnn(C)c3)C(=O)c3cc(S(=O)(=O)NC4(C)CC4)ccc3N21` [Example 78, (R)-1-(methoxymethyl)-4-((1-methyl-1H-pyrazol-4-yl)methyl)-N-(1-methylcyclopropyl)-5-oxo-1,2,4,5-tetrahydroimidazo[1,2-a]quinazoline-7-sulfonamide] showed an IC50 of 100 to 1000 nM.
For `Cn1cc(CN2C(=O)c3cc(S(=O)(=O)NC4(C)CC4)ccc3N3C2=N[C@H]2CCC[C@H]23)cn1` [Example 79, (7aS,10aR)-6-((1-methyl-1H-pyrazol-4-yl)methyl)-N-(1-methylcyclopropyl)-5-oxo-6,7a,8,9,10,10a-hexahydro-5H-cyclopenta[4,5]imidazo[1,2-a]quinazoline-3-sulfonamide], the IC50 was at most 100 nM.
`Cc1nn(C)cc1CN1C(=O)c2cc(S(=O)(=O)NC3(C)CC3)ccc2N2C1=NC[C@H]2C` [Example 80, (R)-4-((1,3-dimethyl-1H-pyrazol-4-yl)methyl)-1-methyl-N-(1-methylcyclopropyl)-5-oxo-1,2,4,5-tetrahydroimidazo[1,2-a]quinazoline-7-sulfonamide] was tested, and the IC50 was at most 100 nM.
For `Cc1c(CN2C(=O)c3cc(S(=O)(=O)NC4(C)CC4)ccc3N3C2=NC[C@H]3C)cnn1C` [Example 81, (R)-4-((1,5-dimethyl-1H-pyrazol-4-yl)methyl)-1-methyl-N-(1-methylcyclopropyl)-5-oxo-1,2,4,5-tetrahydroimidazo[1,2-a]quinazoline-7-sulfonamide], the IC50 was at most 100 nM.
Work on `Cc1nc(C)c([C@@H]2CN=C3N(CC4CC4)C(=O)c4cc(S(=O)(=O)NC5(C)CC5)ccc4N32)s1` [Example 82, (S)-4-(cyclopropylmethyl)-1-(2,4-dimethylthiazol-5-yl)-N-(1-methylcyclopropyl)-5-oxo-1,2,4,5-tetrahydroimidazo[1,2-a]quinazoline-7-sulfonamide] yielded an IC50 of 100 to 1000 nM.
Work on `Cn1cc(CN2C(=O)c3cc(S(=O)(=O)NC4(C)CC4)ccc3N3C2=NC[C@H]3C#CC2CC2)cn1` [Example 83, (R)-1-(cyclopropylethynyl)-4-((1-methyl-1H-pyrazol-4-yl)methyl)-N-(1-methylcyclopropyl)-5-oxo-1,2,4,5-tetrahydroimidazo[1,2-a]quinazoline-7-sulfonamide] yielded an IC50 of at most 100 nM.
For `Cn1cc(CN2C(=O)c3cc(S(=O)(=O)NC4(C)CC4)ccc3N3C2=NC[C@@H]3C#CC2CC2)cn1` [Example 84, (S)-1-(cyclopropylethynyl)-4-((1-methyl-1H-pyrazol-4-yl)methyl)-N-(1-methylcyclopropyl)-5-oxo-1,2,4,5-tetrahydroimidazo[1,2-a]quinazoline-7-sulfonamide], the IC50 was 1000 to 10000 nM.
Work on `[2H]C([2H])(c1cnn(C)c1)N1C(=O)c2cc(S(=O)(=O)NC3(C)CC3)ccc2N2C1=N[C@H]1CCC[C@H]12` [Example 85, (7aS,10aR)-6-(dideutero(1-methyl-1H-pyrazol-4-yl)methyl)-N-(1-methylcyclopropyl)-5-oxo-6,7a,8,9,10,10a-hexahydro-5H-cyclopenta[4,5]imidazo[1,2-a]quinazoline-3-sulfonamide] yielded an IC50 of at most 100 nM.
In the case of `[2H]C([2H])(c1cnn(C)c1)N1C(=O)c2cc(S(=O)(=O)NC3(C)CC3)c(F)cc2N2C1=NC[C@H]2C` [Example 86, (R)-4-(dideutero(1-methyl-1H-pyrazol-4-yl)methyl)-8-fluoro-1-methyl-N-(1-methylcyclopropyl)-5-oxo-1,2,4,5-tetrahydroimidazo[1,2-a]quinazoline-7-sulfonamide], the IC50 is reported as at most 100 nM.
For `[2H]C([2H])(c1cnn(C)c1)N1C(=O)c2cc(S(=O)(=O)NC3(C)CC3)ccc2N2C1=NC[C@H]2C(F)(F)F` [Example 87, (S)-4-(dideutero(1-methyl-1H-pyrazol-4-yl)methyl)-N-(1-methylcyclopropyl)-5-oxo-1-(trifluoromethyl)-1,2,4,5-tetrahydroimidazo[1,2-a]quinazoline-7-sulfonamide], the IC50 was at most 100 nM.
`[2H]C([2H])(c1cnn(C)c1)N1C(=O)c2cc(S(=O)(=O)NC3(C#N)CC3)ccc2N2C1=N[C@H]1CCC[C@H]12` [Example 88, (7aS,10aR)-N-(1-cyanocyclopropyl)-6-(dideutero(1-methyl-1H-pyrazol-4-yl)methyl)-5-oxo-6,7a,8,9,10,10a-hexahydro-5H-cyclopenta[4,5]imidazo[1,2-a]quinazoline-3-sulfonamide] was tested, and the IC50 was at most 100 nM.
`[2H]C([2H])(c1sc(C)nc1C)N1C(=O)c2cc(S(=O)(=O)NC3(C)CC3)ccc2N2C1=NC[C@H]2C` [Example 89, (R)-4-(dideutero(2,4-dimethylthiazol-5-yl)methyl)-1-methyl-N-(1-methylcyclopropyl)-5-oxo-1,2,4,5-tetrahydroimidazo[1,2-a]quinazoline-7-sulfonamide] showed an IC50 of at most 100 nM.
For `C[C@@H]1CN=C2N(Cc3cn(C)nn3)C(=O)c3cc(S(=O)(=O)NC4(C)CC4)ccc3N21` [Example 90, (R)-1-methyl-4-((1-methyl-1H-1,2,3-triazol-4-yl)methyl)-N-(1-methylcyclopropyl)-5-oxo-1,2,4,5-tetrahydroimidazo[1,2-a]quinazoline-7-sulfonamide], the IC50 was 100 to 1000 nM.
`[2H]C([2H])(c1cnn(C)c1)N1C(=O)c2cc(S(=O)(=O)NC3(C)CC3)ccc2N2C1=NC[C@@H]2C` [Example 91, (S)-4-(dideutero(1-methyl-1H-pyrazol-4-yl)methyl)-1-methyl-N-(1-methylcyclopropyl)-5-oxo-1,2,4,5-tetrahydroimidazo[1,2-a]quinazoline-7-sulfonamide] showed an IC50 of 100 to 1000 nM.
`[2H]C([2H])(c1cnn(C)c1)N1C(=O)c2cc(S(=O)(=O)NC3(C)CC3)cc(OC)c2N2C1=NC[C@H]2C` [Example 92, (R)-4-(dideutero(1-methyl-1H-pyrazol-4-yl)methyl)-9-methoxy-1-methyl-N-(1-methylcyclopropyl)-5-oxo-1,2,4,5-tetrahydroimidazo[1,2-a]quinazoline-7-sulfonamide] showed an IC50 of 100 to 1000 nM.
Compound `Cn1cc(CN2C(=O)c3cc(S(=O)(=O)NC4(C)CC4)ccc3N3C2=N[C@H]2COC[C@H]23)cn1` [Example 93, (7aR,10aS)-6-((1-methyl-1H-pyrazol-4-yl)methyl)-N-(1-methylcyclopropyl)-5-oxo-5,6,7a,8,10,10a-hexahydrofuro[3′,4′:4,5]imidazo[1,2-a]quinazoline-3-sulfonamide] has an IC50 of at most 100 nM.
`Cc1nc(C)c(CN2C(=O)c3cc(S(=O)(=O)NC4CC4)ccc3N3C2=NC[C@H]3C)s1` [Example 94, (R)-N-cyclopropyl-4-((2,4-dimethylthiazol-5-yl)methyl)-1-methyl-5-oxo-1,2,4,5-tetrahydroimidazo[1,2-a]quinazoline-7-sulfonamide] gave an IC50 of at most 100 nM.
Compound `CN(C)C[C@@H]1CN=C2N(Cc3cnn(C)c3)C(=O)c3cc(S(=O)(=O)NC4(C)CC4)ccc3N21` [Example 95, (R)-1-((dimethylamino)methyl)-4-((1-methyl-1H-pyrazol-4-yl)methyl)-N-(1-methylcyclopropyl)-5-oxo-1,2,4,5-tetrahydroimidazo[1,2-a]quinazoline-7-sulfonamide] has an IC50 of at most 100 nM.
`CN(C)C[C@H]1CN=C2N(Cc3cnn(C)c3)C(=O)c3cc(S(=O)(=O)NC4(C)CC4)ccc3N21` [Example 96, (S)-1-((dimethylamino)methyl)-4-((1-methyl-1H-pyrazol-4-yl)methyl)-N-(1-methylcyclopropyl)-5-oxo-1,2,4,5-tetrahydroimidazo[1,2-a]quinazoline-7-sulfonamide] gave an IC50 of 1000 to 10000 nM.
`Cn1cc(CN2C(=O)c3cc(S(=O)(=O)NC4(C)CC4)ccc3N3C2=NC[C@H]3CN)cn1` [Example 97, (R)-1-(aminomethyl)-4-((1-methyl-1H-pyrazol-4-yl)methyl)-N-(1-methylcyclopropyl)-5-oxo-1,2,4,5-tetrahydroimidazo[1,2-a]quinazoline-7-sulfonamide] showed an IC50 of 100 to 1000 nM.
`[2H]C([2H])(c1sc(C)nc1C)N1C(=O)c2cc(S(=O)(=O)NC3(C)CC3)ccc2N2C1=N[C@H]1COC[C@H]12` [Example 98, (7aR,10aS)-6-(dideutero(2,4-dimethylthiazol-5-yl)methyl)-N-(1-methylcyclopropyl)-5-oxo-5,6,7a,8,10,10a-hexahydrofuro[3′,4′:4,5]imidazo[1,2-a]quinazoline-3-sulfonamide] was tested, and the IC50 was at most 100 nM.
